US20190263867A1, “TAU PEPTIDES, METHODS OF MAKING, AND METHODS OF USING” (priority 2018, published 2019)
“Also recorded” adds a separate entry of the source.

Experiments:
[1] = tested on: rat hippocampal neurons expressing P301L mutant eGFP-tau; test: P301L mutant tau mislocalization to dendritic spines, kinase inhibitor treatment; assay type: cell-based
Source text: FIG. 5A. […] FIG. 5B. […] FIG. 5C. […] FIG. 5D. […] FIG. 5E.

[2] = tested on: primary cultured rat hippocampal neurons; test: Cell death of cultured neurons under kinase inhibitor treatment; assay type: cell-based; conditions: Sprague-Dawley, 24 h
Procedure: Roscovitine and CHIR99021 were purchased from Sigma-Aldrich (St. Louis, Mo.) and were diluted in DMSO to four 1000× concentration aliquots for ultimate concentrations in neurobasal medium of […]. Primary cultured rat hippocampal neurons transfected with dsRed and eGFP-P301L-tau were treated with one of four 1000× aliquots or DMSO vehicle on DIV 20-22. Treated cells were incubated for 24 hours prior to imaging on DIV 21-23. Cell death was visually assessed under differential interference contrast (DIC) for decreased cell density, lost soma adhesion, gross qualitative neurite retraction. If evidence of cell death was observed under DIC, cells were fixed in 4% sucrose and 4% paraformaldehyde in PBS and stained with 300 nM DAPI in PBS. DAPI stained cells were analyzed under fluorescent microscopy for nuclear pyknosis and karyorrhexis; dsRed expressing cells were analyzed for spine loss. If no cell death was evident under DIC, live fluorescent images were acquired and analyzed as above.

[3] = tested on: cultured G2-3 (A53T αS) mouse hippocampal neurons expressing eGFP-WT tau; test: A53T αS-dependent mislocalization of tau to dendritic spines, GSK3β inhibition; assay type: cell-based; conditions: 3 μM, applied at 16 DIV, imaged at 21 DIV
[4] = tested on: cultured rat hippocampal neurons expressing A53T αS; test: AMPA receptor mEPSCs in neurons transfected with A53T αS; assay type: cell-based; conditions: GSK3β inhibition with CHIR
[5] = tested on: low density hippocampal neurons from G2-3 mice; test: GluA1 surface expression in dendritic spines of G2-3 neurons; assay type: cell-based, mouse
Source text: FIG. 21A. Photomicrographs of neurons from G2-3 mice and their TgNg littermates without (top two panels) and with treatment of CHIR-99021 (bottom two panels). As previously described (Liao et al. 1999 Nature Neuroscience 2(1): 37-43), live neurons were stained for N-GluA1 antibodies (green), fixed, permeablized, and stained for PSD-95 (red). Arrows indicate tightly clustered surface N-GluA1 colocalized with PSD-95, whereas weak, non-specific N-GluR1 immunoreactivity appeared along the dendritic shafts as diffuse staining rather than distinct clusters in G2-3 neurons (arrow heads). The diffuse staining is likely due to the presence of extrasynaptic AMPA receptors (Newpher and Ehlers 2008 Neuron 58: 472-97). […] Scale bar: […]. FIG. 21B. GluA1 surface fluorescence in PSD-95 immunoreactive spines was normalized to dendritic fluorescence. […] For all n=8; data are expressed as mean±s.e.m. […]
Cultured neurons were fixed and permeabilized successively with 4% paraformaldehyde, 100% methanol, and 0.2% Triton X-100 (Lin et al. 2009 Neuropsychopharmacology 34(9):2097-111). […] In FIG. 4A-FIG. 4B, the number of synaptophysin clusters and their colocalization with boutons of neurons expressing eGFP or eGFP-labeled αS were automatically counted using ImageJ software (available on the world wide web at imagej.nih.gov/ij/). […] DAPI stained nuclei were manually counted from wide-field photomicrographs. […]

[6] = tested on: neurons expressing GFP-tagged P301L-tau; test: Missorting of tau to dendritic spines in neurons expressing P301L mutant tau, peptide treatment; assay type: cell-based, rat; conditions: for proportion of dendritic spines that contain tau (tau mis-sorting caused by P301L mutation): 21 DIV neurons, GFP-tagged P301L-tau, peptide 1 μM for 3 days
Procedure: FIG. 10A-FIG. 10B show missorting of tau to dendritic spines caused by P301L mutation is blocked by Peptide 1 and Peptide 2 but not Peptide 3. FIG. 10A 21 days in vitro (DIV) neurons expressing DsRed (left panels) and GFP-tagged P301L-tau (middle panels) were treated with AP peptide (Peptide 2; 1 μM) for 3 days (top panels: untreated; bottom panels: treated).
Transfected cells were continually bathed in neurobasal media and were passively perfused with medical-grade 95% O2-5% CO2. Micrographs were taken on a Nikon epifluorescent inverted microscope with 60× oil lens with a computerized focus motor at DIV 21-23. All digital images were processed using METAMORPH Imaging System (Universal Imaging Corporation, Molecular Devices, San Jose, Calif.). Images were taken as 15 plane stacks at 0.5 micron increments, processed by deconvolution to the nearest planes, and averaged against other stacked images. A dendritic spine was defined as having an expanded head diameter, greater than 50% larger in diameter than the neck. The number of spines per neuron were counted and normalized to a […] length of dendritic shaft. […]

[7] = tested on: rat hippocampal neurons expressing GFP-tagged wild-type human tau; test: Mislocalization of tau to dendritic spines caused by Aβ oligomers; assay type: cell-based; conditions: Aβ oligomers 0.1 μM with AP peptide 1 μM, 3 days
Procedure: FIG. 11A Cultured 21 days in vitro (DIV) rat hippocampal neurons expressing DsRed (left panels) and GFP-tagged wild-type human tau (middle panels) were untreated (top panels), treated with Aβ oligomers alone (0.1 μM) (middle panels), or treated with Aβ oligomers (0.1 μM) with AP peptide (1 μM) (bottom panels) for 3 days.

[8] = tested on: rat hippocampal neurons expressing GFP-WT-tau; test: Tau missorting to dendritic spines in mechanically injured (stretched) neurons, TBI model; assay type: cell-based; conditions: 10 stretches, 2% strain; AP peptide 1 μM
Procedure: FIG. 12A. Representative live images of cultured rat hippocampal neurons that had been co-transfected with plasmids of DsRed (left lane; a red fluorescence protein to label dendritic spines) and green fluorescence protein (GFP)-tagged wild-type tau (GFP-WT-tau; middle lane) with overlay images on the right lane 2 days after the delivery of a mechanical protocol. The neurons were cultured on a plastic membrane and were stretched by a computer-controlled mechanical device, as described in Example 2 (10 stretches; 2% mechanical strain; 1 second interval between stretches) in 21 days in vitro (DIV). Arrows denote dendritic spines that contain tau and triangles denote dendritic spines devoid of tau. FIG. 12B. […] FIG. 12C. […] ANOVA was used in FIG. 12B and FIG. 12C; *** indicates p<0.001.
In a tauopathy model for traumatic brain injuries (TBI) based on the model of Hemphill et al. 2011 PLoS One. 6(7):e2289), mechanical injuries to neurons induce tau missorting to dendritic spines (FIG. 12). The methods of Hemphill et al. were modified such that plasmids encoding GFP-tagged tau were introduced into neurons, allowing detection of tau abnormalities as well as tau-mediated synaptic deficits. Briefly, neurons were plated onto medical grade silicone elastomer membranes (0.010 inch NRV, Specialty Manufacturing, Inc., Saginaw, Mich.) and glued inside a reducing well. […]

[9] = 500 nM chir99021 and 500 nM roscovitine in combination
[10] = either drug alone, concentrations up to 5 μM

Cc1c[nH]c(-c2cnc(NCCNc3ccc(C#N)cn3)nc2-c2ccc(Cl)cc2Cl)n1 [CHIR99021]
percentage of eGFP-containing spines [1, 9]: reduced the percentage of eGFP-containing spines to that of wild type eGFP-tau
percentage of eGFP-containing spines [1, 10]: neither drug alone, at concentrations up to 5 μM, lowered the percentage of eGFP-containing spines to control levels
concentration that killed the neurons [2]: above 5 μM
drug concentration at which overt cell death was observed [2]: exceeded 5 M
increase in dendritic spines containing mislocalized eGFP-tau in G2-3 neurons [3]: blocked
postsynaptic deficits (mEPSC amplitude) caused by A53T αS transfection [4]: completely reverse
surface N-GluA1 synaptic localization (colocalization with PSD-95) ([5]; listed as CHIR): strong colocalization of PSD-95 and N-GluA1 clusters is restored
surface N-GluA1 synaptic localization (colocalization with PSD-95) ([5]; listed as CHIR-99021): restored surface N-GluA1 synaptic localization

CC[C@H](CO)Nc1nc(NCc2ccccc2)c2ncn(C(C)C)c2n1 [roscovitine]
percentage of eGFP-containing spines [1, 9]: reduced the percentage of eGFP-containing spines to that of wild type eGFP-tau
percentage of eGFP-containing spines [1, 10]: neither drug alone, at concentrations up to 5 μM, lowered the percentage of eGFP-containing spines to control levels

H2N-GRKKRRQRRRPQDHGAEIVYKAPVVSGDTAPRHLSNVS ST-OH (H-GRKKRRQRRRPQDHGAEIVYKAPVVSGDTAPRHLSNVSST-OH) [Peptide 2]
proportion of dendritic spines that contain tau (tau mis-sorting caused by P301L mutation) [6]: block mislocalization of tau
proportion of dendritic spines that contain tau (tau mis-sorting caused by P301L mutation) ([6]; listed as AP peptide): blocked tau mis-sorting; also recorded: significantly decreased
strength of effect on tau mis-sorting compared with WT peptide ([6]; neurons expressing P301L mutant tau): stronger effect
proportion of dendritic spines that contain tau, increase caused by Aβ oligomers [7]: blocked
proportion of dendritic spines that contain tau, increase caused by Aβ oligomers ([7]; listed as AP peptide): block tau mislocalization; also recorded: can block tau missorting to dendritic spines
proportion of dendritic spines containing tau after mechanical stretches [8]: blocked tau missorting to dendritic spines

H2N-GRKKRRQRRRPQDHGAEIVYKEPVVSGDTEPRHLSNVS ST-OH (H-GRKKRRQRRRPQDHGAEIVYKEPVVSGDTEPRHLSNVSST-OH) [Peptide 3]
proportion of dendritic spines that contain tau (tau mis-sorting caused by P301L mutation) [6]: did not block
proportion of dendritic spines that contain tau (tau mis-sorting caused by P301L mutation) ([6]; listed as EP Peptide): No decrease
proportion of dendritic spines that contain tau (tau mis-sorting caused by P301L mutation) ([6]; listed as EP peptide): did not block tau mis-sorting
